These results are taken from US20220395458A1, “PREVENTION OF VISIBLE PARTICLE FORMATION IN AQUEOUS PROTEIN SOLUTIONS” (Hoffmann-La Roche Inc., priority 2019, published 2022).

≈ marks a conversion by molar mass, not a printed value. Where only a bound is given, the exact number is not on record here.

Data set [1] can be described thus: Particle identification by FTIR. Format: physicochemical. The conditions noted are these: particle identification d1. As to the method:
Particles >20 μm were further identified by Fourier transformed infrared spectroscopy (FTTIR) using a Nicolet™ iNTM10 Infrared Microscope (Thermo Fisher Scientific) by comparison to reference spectra. Samples were filtrated under laminar air flow through gold-coated polycarbonate filters (pore size 0.8 μm, diameter 13 mm, Sterlitech). Filter conditioning included few droplets of ethanol followed by 1 mL of particle-free water. After filtration of the samples, ˜1 mL of cooled particle-free water was used as a final washing step before analysis.
(§1) pH of all solutions was verified. Samples were visually inspected immediately after spiking and regularly for up to 7 days. Further characterization by HIAC, turbidity, FTIR, and SEM-EDX was performed on day 1 only. All samples were analyzed when equilibrated to room temperature (4 h).
Glass leachables were generated from different types of glass vials, e.g. Exp33 and Exp51 vials, with different matrix solutions including WFI, a glycine solution adjusted to pH 6, and a placebo solution representative for a mAb formulation. Defined amounts of myristic and lauric acid below their solubility limit were added to the solutions/mixtures of glass leachables and analyzed. Visible particles in Seidenader are summarized in Table 3 and were detected for all samples in contrast to various controls. Particle formation was dependent on the glass leachable solution and dependent on incubation time. […] An example for the dependency of particle formation on incubation time is provided in Table 3 for myristic acid in glass leachable solution from Exp51 vials/glycine solution. The example highlights the kinetics of particle formation with no particles directly after spiking and more than 10 particles at incubation day 5 and 7. For selected samples, particles were further characterized and identified by FTIR confirming the presence of free fatty acids. FFA were not confirmed by FTIR for glass leachable solutions generated with WFI, which is linked to the time point of FTIR analysis at d1 and the late onset of particle formation for these samples. Placebo samples were not analyzed further by FTIR as the positive control was found negative attributed to the presence of additional 0.02% PS20, potentially solubilizing the FFA seeds. Characterization of the particles by SEM-EDX confirmed the presence of glass leachables, like Aluminium or silicon on the surface of the FFA particles. […] The spiking study highlights that mixtures of ‘real’ glass leachables lead to precipitation of FFA and particle formation in the visible range dependent on mixture and amount of glass leachables as well as dependent on incubation time, […]

Data set [2] in a line: Visible particles (Seidenader) after spiking FFA to glass leachable solutions. The conditions noted are these: for Visible particles: FFA below solubility limit, up to 7 days, triplicates; for Visible particles d0: d0 directly after spiking. Details: key to Visible particles: relative ranking to each other from less to most particle fromation (+, ++, +++); relative ranking to each other from less to most particle fromation (+, ++, +++); relative ranking to each other from less to most particle fromation (+, ++, +++). Format: physicochemical. As for the experimental part: Aqueous stock solutions were prepared in 0.02% PS20 (Croda. Edison, N.J., USA) at defined concentrations of (1) 5 mg/mL and (2) 12.5 mg/mL (lauric acid. Sigma-Aldrich/Merck. Darmstadt. Del.) or (1) 1.5 mg/mL and (2) 5 mg/mL (myristic acid, Sigma-Aldrich/Merck. Darmstadt. Del.) as previously described by Doshi et al.^6 The procedure was adapted that the FFA/PS20 stock solution was sterile filtered using 0.22 μm PVDF Steriflip filters (Merck Millipore. Darmstadt. Del.) before 1:10 dilution and subsequently homogenized without a magnetic stirrer using a Heidolph Rotamax 120 orbital shaker (Schwabach. Del.) at 100 rpm at 25° C., for 1 hour. After 1:500 dilution, the solution was homogenized for 1 hour at 25° C., before homogenization at 2-8° C., overnight, 12-40 μL of stock solution were used for spiking experiments yielding final FFA concentrations of (1) 10 μg/mL and (2) 25 μg/mL (lauric acid) or (1) 3 μg/mL and (2) 10 μg/mL (myristic acid). Dilutions with stock solutions 1 yield FFA concentration below their solubility limit, whereas stock solutions 2 act as positive control confirmed by the formation of visible particles. FFA concentrations were verified for selected by LC-MS samples acc. Honemann et al.^7
Representative mixtures of glass leachables were obtained from three different types of glass vials, e.g. Exp 33 and Exp51 (Schott A G, Müllheim, D E, and Schott North America Inc., N.Y. USA) in the 6 mL format, by three autoclavation cycles (121° C., 20 min) representing accelerate aging conditions. Vials were filled with 6 mL of either water for injection (WFI), 20 mM glycine solution pH 10 or a typical placebo solution used for protein formulations consisting of 20 mM Histidine/Histdine-HCl buffer pH 6.0, 10 mM Methionine, 240 mM sucrose (Ferro Pfanstiehl. Waukegan. Ill. USA), and 0.02% PS20. The pH of the glycine solutions was adapted after autoclavation with HCl to pH 6.0 and filtered through a 0.22 μm PVDF Sterivex filters (Merck Millipore. Darmstadt. Del.) Leachable concentrations were verified ICP-MS (Table 1) as described by Ditter et al.^8 Spiking experiments with FFA were performed in triplicates,
Samples were analyzed by visual inspection on a Seidenader V 90-T instrument (Seidenader Maschinenbau GmbH. Markt Schwaben. Del.) as previously described by Ditter et al.^9 and using a black/white panel according Ph. Eur. 2.9.20.^10 and classified as Many particles (>7). Few particles (4-7), or Practically free of particles (0-4) in E/P box, and Many particles (>10). Few particles (6-10). Essentially free of particles (1-5), or Free of particles (0) by Seidenader.
as §1
Glass leachables were generated from different types of glass vials, e.g. Exp33 and Exp51 vials, with different matrix solutions including WFI, a glycine solution adjusted to pH 6, and a placebo solution representative for a mAb formulation. Defined amounts of myristic and lauric acid below their solubility limit were added to the solutions/mixtures of glass leachables and analyzed. Visible particles in Seidenader are summarized in Table 3 and were detected for all samples in contrast to various controls. Particle formation was dependent on the glass leachable solution and dependent on incubation time. […] An example for the dependency of particle formation on incubation time is provided in Table 3 for myristic acid in glass leachable solution from Exp51 vials/glycine solution. The example highlights the kinetics of particle formation with no particles directly after spiking and more than 10 particles at incubation day 5 and 7. For selected samples, particles were further characterized and identified by FTIR confirming the presence of free fatty acids. […]

For data set [3] the following is noted: in water at room temperature; cited from earlier work.
Setting [4] is: glass leachable solution Exp33 vials, 3xTS Placebo.
Where [5] appears, read: glass leachable solution Exp33 vials, 3xTS WFI.
The mark [6] stands for this setting: glass leachable solution Exp51 vials, 3xTS Glycine pH 6.
Setting [7] is: glass leachable solution Exp51 vials, 3xTS Placebo.
Where [8] appears, read: glass leachable solution Exp51 vials, 3xTS WFI.
[9] abbreviates: Exp51 vials, 3xTS Glycine pH 6, samples 1-3.
[10] abbreviates: Exp51 vials, 3xTS Glycine pH 6, samples 1-3, listed as myristic acid.

In the case of `CCCCCCCCCCCC(=O)O` [Lauric acid, lauric acid], the FTIR result in data set [1] (Exp33 vials, 3xTS WFI) is given as “FFA”; in data set [1] (Exp51 vials, 3xTS Glycine pH 6), “FFA”. Moreover, the Visible particles entry was “+++” in data set [2] (setting [4]); “+” in data set [2] (setting [5]); “++” in data set [2] (setting [6]); “+++” in data set [2] (setting [7]); “++” in data set [2] (setting [8]). Moreover, the solubility level in data set [3] was 15 µg/mL (≈ 74.9 µM).

With `CCCCCCCCCCCCCC(=O)O` [Myristic acid, myristic acid], the FTIR entry is listed as “FFA” in data set [1] (Exp33 vials, 3xTS Glycine pH 6) and “FFA” in data set [1] (Exp51 vials, 3xTS Glycine pH 6). The “Visible particles d0” value in data set [2] (setting [9]) is on record as 1-5 particles; in data set [2] (setting [10]), “no particles”. For the same compound, in data set [2] (Exp51 vials, 3xTS Glycine pH 6, d1, samples 1-3), the “Visible particles d1” value is 1-5 particles. Moreover, the “Visible particles d5/7” value in data set [2] (setting [9]) is over 10 particles; in data set [2] (setting [10]), “more than 10 particles”. Moreover, the Visible particles result is given as “+” in data set [2] (glass leachable solution Exp33 vials, 3xTS Glycine pH 6); “+” in data set [2] (setting [4]); “+” in data set [2] (setting [5]); “+++” in data set [2] (setting [6]); “+” in data set [2] (setting [7]); “+” in data set [2] (setting [8]). Further, the solubility level in data set [3] is 7 µg/mL (≈ 30.7 µM).
